The results in this text go back to patent US8207134B2, “Fused ring spiroketal derivative and use thereof as anti-diabetic drug” (Chugai Seiyaku Kabushiki Kaisha, priority 2006, dated 2012).

Molecules are shown by their SMILES. pIC50: −log10 of the molar value.

In the assay the target is T1, human SGLT2 (Homo sapiens, UniProt P31639).
T1 construct: expressed in transfected cells; host or cells: CHO-K1
T1 sequence (P31639 1-672): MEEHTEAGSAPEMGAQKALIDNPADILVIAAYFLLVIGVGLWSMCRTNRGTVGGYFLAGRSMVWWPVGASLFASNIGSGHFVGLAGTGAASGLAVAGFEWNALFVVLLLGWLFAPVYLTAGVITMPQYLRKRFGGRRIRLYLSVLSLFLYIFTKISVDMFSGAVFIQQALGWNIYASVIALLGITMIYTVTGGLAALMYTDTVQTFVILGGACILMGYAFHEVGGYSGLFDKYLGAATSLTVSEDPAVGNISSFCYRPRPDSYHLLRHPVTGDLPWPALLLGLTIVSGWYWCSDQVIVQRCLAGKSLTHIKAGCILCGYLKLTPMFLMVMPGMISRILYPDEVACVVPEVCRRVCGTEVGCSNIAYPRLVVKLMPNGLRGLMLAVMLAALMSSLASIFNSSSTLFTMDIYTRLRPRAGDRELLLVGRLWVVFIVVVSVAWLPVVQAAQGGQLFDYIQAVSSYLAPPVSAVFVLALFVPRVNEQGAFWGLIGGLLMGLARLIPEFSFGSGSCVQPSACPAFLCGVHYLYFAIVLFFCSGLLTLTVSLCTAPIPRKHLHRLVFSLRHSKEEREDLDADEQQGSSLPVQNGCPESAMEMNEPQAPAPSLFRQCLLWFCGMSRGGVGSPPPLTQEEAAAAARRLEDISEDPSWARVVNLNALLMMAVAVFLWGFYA
Nature of the assay: Inhibitory activity against methyl-α-D-glucopyranoside uptake of human Na+-glucose cotransporter SGLT2. The note with it: CHO-K1 cells stably expressing human SGLT2; methyl-α-D-(U-14C)glucopyranoside uptake, 37° C. for 45 minutes; read-out: Ic50 value (inhibition of SGLT2). In kind it is cell-based. The source says: Evaluation of Inhibitory Activity Against Methyl-α-D-Glucopyranoside Uptake of Human Na^+-Glucose Cotransporter (SGLT1 and SGLT2)
2) Construction of Human SGLT2 Expression Vector
Human SGLT2 cDNA was amplified by PCR with a cDNA library derived from human kidney (Clontech) as a template, synthetic DNA primers and KOD+ DNA Polymerase. The amplified cDNA was inserted into pcRII-Topo vector by using a Topo TA Cloning Dual Promoter kit. E. coli competent cells (TPO10) were transformed with the plasmid vector, cultured in LB medium containing ampicillin (50 mg/L) to grow ampicillin-resistant clones. The plasmid vector containing human SGLT2 cDNA was purified from the clone in a standard manner. Human SGLT2 cDNA added restriction enzyme recognition sites (Xho I at 5′-end, Hind III at 3′-end) was amplified by PCR with the plasmid vector as a template, synthetic DNA primers containing an additional restriction enzyme recognition site and KOD+ DNA Polymerase. This amplified cDNA was digested with Xho I and Hind III, and ligated into expression vector pcDNA3.1(−) digested with Xho I and Hind III by using a Rapid DNA Ligation kit. E. coli competent cells (DH5α) were transformed with the ligated expression vector and grown in ampicillin-containing LB medium. Human SGLT2 expression vector was purified from the ampicillin-resistant clone in a standard manner.
3) Establishment of Cell Lines Stably Expressing Human SGLT1 or Human SGLT2
The human SGLT1 expression vector or the human SGLT2 expression vector was digested with the restriction enzyme Pvu I and transfected into CHO-Kl cells with FuGENE (Roche Diagonostics). After the transfection, the cells were cultured at 37° C. in the presence of 5% CO2 for about 3 weeks in DMEM medium (Gibco) containing penicillin (50 U/mL, SIGMA), streptomycin (50 mg/L, SIGMA), geneticin (200 mg/L, Nacalai Tesque, Inc., Japan) and 20% fetal bovine serum to obtain geneticin-resistant clones. […]
In general, pIC50 refers to the IC50 on a negative log10 scale, so that one unit is a factor of ten. With `CCc1ccc(Cn2ccc3cc4c(cc32)[C@]2(OC4)O[C@H](CO)[C@@H](O)[C@H](O)[C@H]2O)cc1` [Example 2, (3′R,4′S,5′S,6′R,7S)-1-[(4-ethylphenyl)methyl]-6′-hydroxymethyl-3′,4,5′,6′-tetrahydro-spiro[furo[3,4,f]indole-7(5H),2′-[2H]pyran]-3′,4′,5′-triol], the pIC50 was 8.70.

Regarding `CCc1ccc(Cc2cccc3c4c(sc23)C2(OCC4)O[C@H](CO)[C@@H](O)[C@H](O)[C@H]2O)cc1` (stereo in doubt) [Example 3, (1S,3′R,4′S,5′S,6′R)-8-[(4-ethylphenyl)methyl]-3,3′,4,4′,5′,6′-hexahydro-6′-hydroxymethyl-spiro[2-oxa-9-thia-fluorene-1,2′-[2H]pyran]-3′,4′,5′-triol], the pIC50 was 8.29.

As for `CCc1ccc(Cc2csc3cc4c(cc23)[C@]2(OC4)O[C@H](CO)[C@@H](O)[C@H](O)[C@H]2O)cc1` [Example 1, (3′R,4′S,5S,5′S,6′R)-3-[(4-ethylphenyl)methyl]-6′-(hydroxymethyl)-3′,4′,5′,6′-tetrahydro-spiro[thieno[2,3,f]isobenzofuran-5(7H),2′-[2H]pyran]-3′,4′,5′-triol], the pIC50 was 8.41.
